Each structure is given as a SMILES string. pIC50: −log10 of the molar value. Values joined by “and” are separate entries in the source; they are usually repeats but may differ in a detail not shown here. Equal entries are not always repeated.

What is called pIC50 is the negative decadic logarithm of the IC50, by convention in mol/L.

Experiment [1] addresses T1, receptor interacting protein kinase 1 (GST-hRIPK1 (8-327)) (Homo sapiens, UniProt Q13546).
T1 construct: GST-hRIPK1 (8-327) enzyme was generated by Proteros GmbH by Baculovirus expression system
T1 sequence (Q13546 8-327): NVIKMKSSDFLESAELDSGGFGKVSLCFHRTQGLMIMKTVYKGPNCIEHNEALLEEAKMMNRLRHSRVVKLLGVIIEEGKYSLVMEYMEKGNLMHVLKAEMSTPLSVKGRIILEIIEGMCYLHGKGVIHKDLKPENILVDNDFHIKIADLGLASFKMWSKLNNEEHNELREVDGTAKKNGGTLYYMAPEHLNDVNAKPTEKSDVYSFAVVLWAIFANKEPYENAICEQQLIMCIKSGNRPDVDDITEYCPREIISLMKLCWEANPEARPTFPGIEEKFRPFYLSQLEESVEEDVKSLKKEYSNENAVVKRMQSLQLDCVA
As to the kind of experiment: Fluorescent Polarization Binding (FP Binding) assay. Conditions: 10 nM GST-hRIPK1 (8-327), 5 nM fluorescent-labeled ligand, 30 min at RT. An outline of the steps:
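Displacement of 5 nM fluorescent ligand from 10 nM GST-hRIPK1 (8-327), 30 min at room temperature in pH 7.5 HEPES buffer, 1% DMSO. Fluorescence polarization read (ex 531/em 595 nm); IC50 fitted from percent inhibition and averaged over at least two independent experiments.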

Experiment [2] addresses T1, receptor interacting protein kinase 1 (GST-hRIPK1 (8-327)). Nature of the experiment: ADP-Glo luminescence assay, RIPK1 autophosphorylation. The format is biochemical. Particulars: 1.5 μg/mL GST-hRIPK1 (8-327), 50 μM ATP, 3 hours at room temperature. Here is the method:
Compound potency at receptor interacting protein kinase 1 and selectivity at receptor interacting protein kinase 2 and receptor interacting protein kinase 3 was determined in autophosphorylation mode, using an ADP-Glo luminescence assay, which measures the conversion of ATP to ADP.
(§1) GST-hRIPK1 (8-327) enzyme was generated by Proteros GmbH by Baculovirus expression system. GST-hRIPK2 (1-299) and GST-hRIPK3 (1-518) enzymes were purchased from SignalChem. Test compounds were diluted in DMSO and 0.1 μL of solution was dispensed to each well of a 384-well white solid microplates. The assay buffer was 50 mM HEPES pH 7.5, 50 mM NaCl, 30 mM MgCl2. The buffer was supplemented with 0.02% CHAPS, 0.01% of Pluronic F127, 0.1 mg/mL BSA and 1 mM DTT. Only for receptor interacting protein kinase 1 5 mM MnCl2, was included in the assay buffer on the day of the experiment. The enzymatic reaction consisted of 1.5 μg/mL GST-hRIPK1 (8-327) and 50 μM ATP for receptor interacting protein kinase 1, 0.4 μg/mL GST-hRIPK2 (1-299) and 150 μM ATP, 0.4 μg/mL GST-hRIPK3 (1-518) and 15 μM ATP. 5 μL of enzyme and 5 μL of ATP were added to the plate at twice the final assay concentration and incubated at room temperature for 3 hours. Following this reaction, 10 μL of ADP-Glo reagent (Promega) was added to each well and incubated for 40 minutes at room temperature. This stops the kinase reaction and depletes any remaining ATP. 20 μL of ADP-Glo detection reagent was then added to each well and incubated at room temperature for at least 15 minutes. The detection reagent converts ADP to ATP and introduces luciferase and luciferin to detect ATP. The luminescence is then measured with the Envision (PerkinElmer) plate reader. Test compound inhibition was expressed as percent inhibition of internal assay controls. For concentration response curves, normalized data is fit and pIC50 determined using XL-fit (IDBS) for Excel. The pIC50 were averaged to determine a mean value, for a minimum of two independent experiments.
Certain compounds were tested in the following. Compound potency at receptor interacting protein kinase 1 and selectivity at receptor interacting protein kinase 2 and receptor interacting protein kinase 3 was determined in autophosphorylation mode, using an ADP-Glo luminescence assay (Berger S. B. et al. (2015) Cell Death Discovery, 1: 15009), which measures the conversion of ATP to ADP.
GST-hRIPK1 (8-327) enzyme was generated by Proteros GmbH by Baculovirus expression system.
as §1, with “Test” for “GST-hRIPK1 (8-327) enzyme was generated by Proteros GmbH by Baculovirus expression system. GST-hRIPK2 (1-299) and GST-hRIPK3 (1-518) enzymes were purchased from SignalChem. Test”, “microplate.” for “microplates.”, “comprised” for “consisted of”, “1” for “1, 0.4 μg/mL GST-hRIPK2 (1-299) and 150 μM ATP, 0.4 μg/mL GST-hRIPK3 (1-518)”, “IC50” for “pIC50”, “experiments. […]” for “experiments.”
(In ADP-Glo the light output rises with the ADP produced.)

Turning to `CC(C)(C(=O)N1OCC[C@H]1c1ccc(F)cc1)C(F)F` [Compound 101, 3,3-difluoro-1-[(3S)-3-(4-fluorophenyl)-1,2-oxazolidin-2-yl]-2,2-dimethylpropan-1-one], the pIC50 in experiment [1] is > 6.00 and 8.10; in experiment [2], > 6.00.

In the case of `CC(C)(C)C(=O)N1OCC[C@@H]1c1ccccc1F` [Compound 71], the negative-log IC50 (pIC50) in experiment [1] and in experiment [2] was > 6.00 in each case.

With `O=C(c1onc2ccccc12)N1OCC[C@H]1c1ccccc1` [Compound 18, 3-[(3S)-3-phenyl-1,2-oxazolidine-2-carbonyl]-2,1-benzoxazole], the pIC50 in experiment [1] and in experiment [2] was > 6.00 each time.

With `O=C(N1CCCC1)N1OCC[C@H]1c1ccccc1` [Compound 7, (3S)-3-phenyl-2-(pyrrolidine-1-carbonyl)-1,2-oxazolidine], the pIC50 in experiment [2] was 5.00 to 6.00.

Take `O=C(Nc1ccccc1)N1OCC[C@H]1c1ccccc1` [Compound 4, (3S)—N,3-diphenyl-1,2-oxazolidine-2-carboxamide]: the pIC50 in experiment [1] and in experiment [2] was > 6.00 each time.

With `COCC(=O)N1OCC[C@H]1c1ccccc1` [Compound 13, 2-Methoxy-1-[(3S)-3-phenyl-1,2-oxazolidin-2-yl]ethan-1-one], the pIC50 in experiment [2] was 5.00 to 6.00.

Regarding `Cn1c(C#N)ccc1C(=O)N1OCCC1c1c(F)cccc1Cl` (racemic) [Compound 3, 5-[3-(2-chloro-6-fluorophenyl)-1,2-oxazolidine-2-carbonyl]-1-methyl-1H-pyrrole-2-carbonitrile], the pIC50 in experiment [2] is > 6.00.

As to `C[C@@H](O)C(=O)N1OCC[C@H]1c1ccccc1` [Compound 14, (2R)-2-Hydroxy-1-[(3S)-3-phenyl-1,2-oxazolidin-2-yl]propan-1-one], the negative-log IC50 (pIC50) in experiment [2] is < 5.00.

With `O=C(N1OCC[C@H]1c1ccccc1)C1(O)CC1` [Compound 10, 1-[(3S)-3-Phenyl-1,2-oxazolidine-2-carbonyl]cyclopropan-1-ol], the pIC50 in experiment [2] was < 5.00.

In turn, `O=C(C1COC1)N1OCC[C@H]1c1ccccc1` [Compound 11, (3S)-2-(Oxetane-3-carbonyl)-3-phenyl-1,2-oxazolidine] had a negative-log IC50 (pIC50) in experiment [2] of 5.00 to 6.00.

As for `CN(C)C(=O)N1OCC[C@H]1c1ccccc1` [Compound 6, (3S)—N,N-dimethyl-3-phenyl-1,2-oxazolidine-2-carboxamide], in experiment [2], the negative-log IC50 (pIC50) is 5.00 to 6.00.

As to `CC(C)(C)C(=O)N1OCC[C@@H]1c1ccccc1` [Compound 84, (R)-2,2-dimethyl-1-(3-phenylisoxazolidin-2-yl)propan-1-one], in experiment [2], the pIC50 was < 5.00.

As to `CC(C)(C)NC(=O)N1OCC[C@H]1c1ccccc1` [Compound 5, (3S)—N-tert-Butyl-3-phenyl-1,2-oxazolidine-2-carboxamide], in experiment [2], the pIC50 was 5.00 to 6.00.

As to `O=C(CO)N1OCC[C@H]1c1ccccc1` [Compound 9, 2-hydroxy-1-[(3S)-3-phenyl-1,2-oxazolidin-2-yl]ethan-1-one], the pIC50 in experiment [2] was < 5.00.

As to `CC(C)(C)OC(=O)N1OCCC1c1ccccc1` (stereo not shown) [Compound 83, tert-butyl 3-phenylisoxazolidine-2-carboxylate], the negative-log IC50 (pIC50) in experiment [2] was 5.00 to 6.00.

As for `Cn1c(C#N)ccc1C(=O)N1OCC[C@@H]1c1ccccc1` [Compound 85, (R)-1-methyl-5-(3-phenylisoxazolidine-2-carbonyl)-1H-pyrrole-2-carbonitrile], the pIC50 in experiment [2] is < 5.00.

As to `CC(C)(C)C(=O)N1OCC[C@H]1c1cncc(F)c1` [Compound 133, 1-[(3S)-3-(5-fluoropyridin-3-yl)-1,2-oxazolidin-2-yl]-2,2-dimethylpropan-1-one], the negative-log IC50 (pIC50) in experiment [1] was > 6.00.

Take `Cn1c(C#N)ccc1C(=O)N1OCC[C@@H]1c1ccc(F)cc1` [Compound 59, 5-[(3R)-3-(4-fluorophenyl)-1,2-oxazolidine-2-carbonyl]-1-methyl-1H-pyrrole-2-carbonitrile]: the negative-log IC50 (pIC50) in experiment [1] is < 5.00.

For `CC(C)(C)C(=O)N1OCC[C@@H]1c1ccc(F)c(F)c1` [Compound 51, 1-[(3R)-3-(3,4-Difluorophenyl)-1,2-oxazolidin-2-yl]-2,2-dimethylpropan-1-one], the pIC50 in experiment [1] was 5.00 to 6.00.

`CC(C)(C)C(=O)N1OCC[C@H]1c1ccnc(N)c1` [Compound 149, 1-[(3S)-3-(2-aminopyridin-4-yl)-1,2-oxazolidin-2-yl]-2,2-dimethylpropan-1-one] had a pIC50 in experiment [1] of 5.00 to 6.00.

On to `CC1(C(=O)N2OCC[C@H]2c2ccc(F)c(F)c2)CCOC1` (single isomer, unassigned) [Compound 211], for which the pIC50 in experiment [1] is > 6.00.

As to `CC(C)(C)C(=O)N1OCC[C@H]1c1ccn2ccnc2c1` [Compound 110, 1-[(3S)-3-{imidazo[1,2-A]pyridin-7-yl}-1-oxazolidin-2-yl]-2,2-dimethylpropan-1-one], the negative logarithm of the IC50 (pIC50) in experiment [1] is > 6.00.

In the case of `CC(C)(C)C(=O)N1OCC[C@@H]1c1cccc(F)c1F` [Compound 30, 1-[(3R)-3-(2,3-Difluorophenyl)-12-oxazolidin-2-yl]-2,2-dimethylpropan-1-one], the negative logarithm of the IC50 (pIC50) in experiment [1] is > 6.00.

In the case of `CC(C(=O)N1OCC[C@H]1c1ccc(F)cc1)C(F)F` (single isomer, unassigned) [Compound 189], the negative-log IC50 (pIC50) in experiment [1] was > 6.00.

Take `CC(C)C(=O)N1OCC[C@@H]1c1ccc(F)cc1` [Compound 65, 1-[(3R)-3-(4-Fluorophenyl)-1,2-oxazolidin-2-yl]-2-methylpropan-1-one]: in experiment [1], the pIC50 was < 5.00.

For the molecule `CC1(C(=O)N2OCC[C@H]2c2ccc(F)c(F)c2)CCOC1` (single isomer, unassigned) [Compound 212], the negative logarithm of the IC50 (pIC50) in experiment [1] is > 6.00.

With `CC(C)(CC#N)C(=O)N1OCC[C@H]1c1ccc(F)cc1` [Compound 171, 4-[(3S)-3-(4-fluorophenyl)-1,2-oxazolidin-2-yl]-3,3-dimethyl-4-oxobutanenitrile], the negative-log IC50 (pIC50) in experiment [1] was > 6.00 and 7.96.

In experiment [2], `CC(C)(C)OC(=O)N1OCC[C@H]1c1ccccc1` [Compound 22, tert-Butyl (3S)-3-phenyl-1,2-oxazolidine-2-carboxylate] gave a pIC50 of 5.00 to 6.00.

For the molecule `CC(OC(F)(F)F)C(=O)N1OCC[C@H]1c1ccc(F)nc1` (single isomer, unassigned) [Compound 185], the negative logarithm of the IC50 (pIC50) in experiment [1] is 5.00 to 6.00.

Turning to `CC(C)(COC(F)(F)F)C(=O)N1OCC[C@H]1c1cncc(F)c1` [Compound 139, 1-[(3S)-3-(5-fluoropyridin-3-yl)-1,2-oxazolidin-2-yl]-2,2-dimethyl-3-(trifluoromethoxy)propan-1-one], in experiment [1], the pIC50 is > 6.00.

For the origin of these results see patent US10709692B2, “Isoxazolidine derived inhibitors of receptor interacting protein kinase 1 (RIPK1)” (Denali Therapeutics Inc., priority 2015, dated 2020).
